{Puro} = puromycin of the RNA
Tests used:
D50S = assay: X-ray crystallography of D50S-ligand complex crystals (co-crystallization or soaking); type: binding, D. radiodurans; settings: result in words, from complex crystals and electron-density maps
Experimental: Growth of D50S crystals: D. radiodurans LRSs were isolated, and crystals of D50S belonging to the space-group […] were grown as described in Example 1, above. Co-crystallization of D50S with antibiotics was carried out in the presence of 0.8-3.5 mM of the antibiotics chloramphenicol, clindamycin, erythromycin, and roxithromycin. Co-crystallization of D50S with clarithromycin was achieved by soaking D50S crystals in solutions containing 0.01 mM of this antibiotic.
X-ray diffraction: Data were collected at 85 K from shock-frozen crystals with a bright SR beam at ID19 at APS/ANL, ID14/2 and 4 at ESRF/EMBL, and at BW6 at DESY. Data were recorded on MAR345, Quantum 4, or APS-CCD detectors and processed with HKL2000 (Otwinowski, Z. and Minor, W., 1997. Macromolecular Crystallography, Pt A 276, 307).
Placements and refinement: The 3.1 Å structure of D50S described in Example 1, above, was refined against the structure factor amplitudes of each of the antibiotic-D50S complexes, using rigid body refinement as implemented in CNS (Brunger, A. T. et al., 1998. Acta Crystallographica Section D-Biological Crystallography 54, 905). SigmaA-weighted difference maps were used for the initial manual placement of the antibiotics. Each of the D50S-antibiotic models was further refined using REFMAC software (Murshudov, G. N. et al., 1999. Acta Cryst section D55, 247). For the calculation of free R-factor a subset of reflections (10% of the data) was omitted from the refinement. The structure coordinates of the antibiotic-D50S complexes were submitted to the PDB under accession numbers 1JZX, 1JZY, 1JZZ, 1K00, and 1K01.
Crystallization: Crystals of the large ribosomal subunit of D. radiodurans (D50S) were generated as described in Example 1 above (Harms J. et al., 2001. Cell 107, 679-688; Schlüenzen et al., 2001. Nature 413, 814-821). […]
X-ray diffraction: Data were collected at 85 K from shock-frozen crystals using a synchrotron radiation beam at ID 19 at Argonne Photon Source/Argonne National Laboratory (APS/ANL) and ID14/2, ID14/4 at the European Synchrotron Radiation Facility/European Molecular Biology Laboratory (ESRF/EMBL). Data were recorded on Quantum 4 or APS-CCD detectors and processed with HKL2000 (Otwinowski, Z. and Minor, W., 1997. Macromolecular Crystallography Pt A. 276, 307) and the CCP4 suite (Bailey, S., 1994. Acta Cryst D. 50, 760).
Localization and refinement: The 3.1 Å structure of D50S (PDB accession code 1LNR) was refined against the structure factor amplitudes of each of the two D50S-antibiotic complexes, using rigid body refinement as implemented in CNS (Brunger, A. T. et al., 1998. Acta Crystallographica Section D-Biological Crystallography 54, 905-921). […] The positions of the antibiotics were readily determined from sigmaA-weighted difference maps. […]

ribosomes [1] = settings: cited from earlier work; for binding to the ribosome: result in words
E. coli = settings: U/U at 23S rRNA positions C803DR/C1773DR; cited from earlier work
Heliobacter pylori = Heliobacter pylori (U/U); cited from earlier work
Haemophilus influenzae = Haemophilus influenzae (A/C); cited from earlier work
ribosomes [2] = settings: cited from earlier work

CSC[S@+]([O-])C[C@H](CO)NC(=O)/C=C/c1c(C)[nH]c(=O)[nH]c1=O [sparsomycin]
binding to D50S (D50S): almost quantitative binding
binding to the ribosome (ribosomes [1]): weak binding

CC[C@H]1OC(=O)[C@H](C)C(=O)[C@H](C)[C@@H](O[C@@H]2O[C@H](C)C[C@H](N(C)C)[C@H]2O)[C@](C)(OC)C[C@@H](C)C(=O)[C@H](C)[C@@H](O)[C@]1(C)O [RU56006]
Kd (ribosomes [1]; compared with erythromycin): same order of magnitude as that of erythromycin

COc1ccc(C[C@H](N)C(=O)N[C@H]2[C@@H](O)[C@H](n3cnc4c(N(C)C)ncnc43)O[C@@H]2CO)cc1 [Puromycin]
binding to the ribosome (ribosomes [1]): binds weakly

CC[C@H]1OC(=O)[C@H](C)[C@@H](O[C@H]2C[C@@](C)(OC)[C@@H](O)[C@H](C)O2)[C@H](C)[C@@H](O[C@@H]2O[C@H](C)C[C@H](N(C)C)[C@H]2O)[C@](C)(O)C[C@@H](C)CN(C)[C@H](C)[C@@H](O)[C@]1(C)O [azithromycin, 9-deoxy-9A-methyl-9A-aza-9A-homoerythromycin]
binding to D50S (D50S): high affinity

ACCP: puromycin-coupled RNA molecule having the sequence 5′-ACC-Puro; substrate analog mimicking the CCA 3′ end of the tRNA acceptor stem (RNA, 3' {Puro}, backbone not given here)
binding to D50S (D50S): bind well

CC[C@H]1OC(=O)[C@H](C)C(=O)[C@H](C)[C@@H](O[C@@H]2O[C@H](C)C[C@H](N(C)C)[C@H]2O)[C@](C)(OCC=Cc2cnc3ccccc3c2)C[C@@H](C)C(=O)[C@H](C)[C@H]2NC(=O)O[C@@]21C [ABT-773]
binding to D50S (D50S): high affinity
susceptibility to ABT-773 (E. coli): equally susceptible
susceptibility to ABT-773 (Heliobacter pylori): equally susceptible
susceptibility to ABT-773 (Haemophilus influenzae): equally susceptible

CC[C@H]1OC(=O)[C@H](C)[C@@H](O[C@H]2C[C@@](C)(OC)[C@@H](O)[C@H](C)O2)[C@H](C)[C@@H](O[C@@H]2O[C@H](C)C[C@H](N(C)C)[C@H]2O)[C@](C)(O)C[C@@H](C)C(=O)[C@H](C)[C@@H](O)[C@]1(C)O [erythromycin]
length of peptides produced by erythromycin-bound ribosomes (ribosomes [2]): up to 8 residues

Source: patent US20040265984A1, “Methods of growing crystals of free, antibiotic-complexed, and substrate-complexed large ribosomal subunits, and methods of rationally designing or identifying antibiotics using structure coordinate data derived from such crystals” (priority 2001, published 2004)
